{"source": "patent US20170356048A1", "about": "“METHOD FOR PREDICTING RECEPTIVITY TO TARGETED ANTICANCER DRUG” (CBSBIOSCIENCE INC., priority 2014, published 2017)", "key": {"hepatocellular carcinoma": {"tested_on": "hepatocellular carcinoma", "settings": "cited from earlier work"}, "liver cancer": {"tested_on": "liver cancer", "assay": "Rate of response to sorafenib treatment (reduction in tumor size by CT and MRI, mRECIST) in liver cancer patients stratified by risk score or marker gene expression", "format": "in vivo, human", "protocol": "In the following manner, RNA was extracted from each of the tissues and synthesized into cDNA.\nThe risk scores of a total of 29 liver cancer patients were calculated, and the risk score distribution of responders to sorafenib and the risk score distribution of non-responders to sorafenib were examined. Herein, whether or not sorafenib would have a therapeutic effect was determined based on the degree of reduction in tumor size by CT and MRI imagings, and criteria for the determination followed mRECIST (modified Response Evaluation Criteria in Solid tumors) criteria version 1.1.\nIn addition, after stratification of the liver cancer patients by classification, the rate of response to sorafenib treatment was examined in order to confirm improvement in clinical responses, and the results of the examination are shown in Table 5 below."}}}
{"smiles": "CNC(=O)c1cc(Oc2ccc(NC(=O)Nc3ccc(Cl)c(C(F)(F)F)c3)cc2)ccn1", "note": "[sorafenib]", "values": [{"measurement": "treatment rate", "setting": "hepatocellular carcinoma; hepatocellular carcinoma, unselected patients", "result": "2-3%"}, {"measurement": "therapeutic effect", "setting": "hepatocellular carcinoma; known value, NEJM2008 359(4):378-390", "result": "about 2.3%"}, {"measurement": "Response rate (%)", "setting": "liver cancer; liver cancer patients with CDH1 expression ≦0.0067, 3 responders, 13 non-responders", "result": 18.75, "unit": "%"}, {"measurement": "Response rate (%)", "setting": "liver cancer; liver cancer patients with ID2 expression ≦0.4965, 3 responders, 12 non-responders", "result": 20.0, "unit": "%"}, {"measurement": "Response rate (%)", "setting": "liver cancer; liver cancer patients with MMP9 expression >0.0433, 3 responders, 15 non-responders", "result": 16.67, "unit": "%"}, {"measurement": "Response rate (%)", "setting": "liver cancer; liver cancer patients with TCF3 expression >0.3711, 2 responders, 1 non-responder", "result": 66.67, "unit": "%"}, {"measurement": "Response rate (%)", "setting": "liver cancer; liver cancer patients with risk score (CDH1, ID2, MMP9, TCF3) >87.59, 3 responders, 8 non-responders", "result": 27.27, "unit": "%"}]}
